Paper PMC11352273, “The Proapoptotic Action of Pyrrolidinedione–Thiazolidinone Hybrids towards Human Breast Carcinoma Cells Does Not Depend on Their Genotype” (Cancers, 2024)

Columns and labels:
[1] = test system: MCF-7 cells; assay: JC-1 mitochondrial membrane potential flow cytometry; assay type: cell-based, human; conditions: MCF-7, 24 h
Procedure: (§1) The JC-1 MitoScreen kit (BD Pharmigen, San Diego, CA, USA) and a flow cytometer (BD FACSCanto II) were used to detect the decrease in mitochondrial membrane potential (MMP, ΔΨm) under the action of the studied compounds. […] Following washing, the cells were further suspended in 0.5 mL of buffer with 10 µg/mL JC-1 and incubated for 15 min at room temperature in the dark. Then, cells were washed twice with buffer, resuspended in 300 µL PBS, and analyzed.

[2] = test system: MDA-MB-231 cells; assay: as above; assay type: cell-based, human; conditions: MDA-MB-231, 24 h
Procedure: as §1

[3] = test system: caspase 9 in MCF-7 cells; assay: Caspase-9 activity, FAM-FLICA flow cytometry; assay type: cell-based, human; conditions: MCF-7, 24 h
Procedure: (§3) The assay was performed following the manufacturer’s instructions and the previously described methodology [25]. […] The cells were gathered, rinsed twice with chilled PBS, and reconstituted in an Apoptosis Wash Buffer. Then, 10 µL of freshly diluted FLICA solution was added to 290 µL of cell suspension and incubated for an hour at 37 °C. Following two rounds of washing with 2 mL of Apoptosis Wash Buffer, the cells were centrifuged, resuspended in 300 µL of the buffer, and then analyzed [25].

[4] = test system: caspase 8 in MDA-MB-231 cells; assay: Caspase-8 activity, FAM-FLICA flow cytometry; assay type: cell-based, human; conditions: MDA-MB-231, 24 h
Procedure: as §3

[5] = test system: caspase 10 in MCF-7 cells; assay: Caspase-10 activity, FAM-FLICA flow cytometry; assay type: cell-based, human; conditions: MCF-7, 24 h
[6] = test system: Beclin-1 in MCF-7 cells; assay: Beclin-1 ELISA in cell lysates; assay type: cell-based, human; conditions: MCF-7, 24 h, 2 μM; untreated control 4.08 ng/mL
Procedure: (§2) In order to determine the Beclin-1 concentration in the cell lysates, the SimpleStep ELISA (Abcam, Cambridge, UK) Kit was used. MMP-2, MMP-9, and ICAM-1 concentrations were measured in culture supernatants using high-sensitivity human SimpleStep ELISA kits (Abcam, Cambridge, UK) according to the manufacturer’s protocols. The LC3B ELISA kit (BT LAB, Shanghai, China) was used to check the protein concentration in cell lysates from analyzed breast cancer cells. The procedure for preparing the samples was shown previously.

[7] = test system: Beclin-1 in MDA-MB-231 cells; assay: Beclin-1 ELISA in cell lysates; assay type: cell-based, human; conditions: MDA-MB-231, 24 h, 2 μM; untreated control 11.79 ng/mL
Procedure: as §2

[8] = test system: LC3B in MCF-7 cells; assay: LC3B ELISA in cell lysates; assay type: cell-based, human; conditions: MCF-7, 24 h, compound concentration not stated; control 574.84 ng/mL
Procedure: as §2

[9] = test system: LC3B in MDA-MB-231 cells; assay: LC3B ELISA in cell lysates; assay type: cell-based, human; conditions: MDA-MB-231, 24 h, 2 μM; control 698.25 ng/mL
Procedure: as §2

[10] = test system: normal human keratinocytes (HaCaT); design: method as in PMID 37579525; conditions: cited from earlier work
[11] = test system: caspase 3/7 in MCF-7 cells; assay: Caspase-3/7 activity, FAM-FLICA flow cytometry; conditions: MCF-7, 24 h
Procedure: as §3

[12] = test system: caspase 3/7 in MDA-MB-231 cells; assay: Caspase-3/7 activity, FAM-FLICA flow cytometry; conditions: MDA-MB-231, 24 h
Procedure: as §3

SMILES: O=C1CC(N2C(=O)C(=CC(Cl)=Cc3ccc([N+](=O)[O-])cc3)SC2=S)C(=O)N1c1ccc(O)cc1 (stereo not shown) [Les-6287, 1-(4-hydroxyphenyl)-3-[5-[2-chloro-3-(4-nitrophenyl)prop-2-enylidene]-4-oxo-2-thioxothiazolidine-3-yl]pyrrolidine-2,5-dione]
- cells with decreased mitochondrial membrane potential (ΔΨm) ([1]; 1 µM): 21.00 ± 1.20%
- cells with decreased mitochondrial membrane potential (ΔΨm) ([1]; 1.5 µM): 38.85 ± 3.46%
- cells with decreased mitochondrial membrane potential (ΔΨm) ([2]; 1 µM): 3.75 ± 1.34%
- cells with decreased mitochondrial membrane potential (ΔΨm) ([2]; 1.5 µM): 17.85 ± 3.46%
- cells with active caspase 9 ([3]; 1 µM): 24.40 ± 0.98%
- cells with active caspase 9 ([3]; 1.5 µM): 36.45 ± 1.05%
- cells with active caspase 8 ([4]; 1 µM): 18.23 ± 0.62%
- cells with active caspase 8 ([4]; 1.5 µM): 23.50 ± 1.03%
- cells with active caspase 10 ([5]; 1 µM): 11.58 ± 2.30%
- cells with active caspase 10 ([5]; 1.5 µM): 20.50 ± 1.49%
- concentration of Beclin-1 [6]: 2.78 ng/mL
- concentration of Beclin-1 [7]: 9.83 ng/mL
- concentration of LC3B [8]: 537.74 ng/mL
- concentration of LC3B [9]: 483.50 ng/mL
- IC50 [10]: > 73.6 µM
- cells with active caspase 3/7 ([11]; 1 µM): 21.38 ± 1.50%
- cells with active caspase 3/7 ([11]; 1.5 µM): 47.08 ± 3.40%
- cells with active caspase 3/7 ([12]; 1 µM): 17.20 ± 1.58%
- cells with active caspase 3/7 ([12]; 1.5 µM): 26.63 ± 8.32%
